Assay results: ChEMBL document CHEMBL4354831, “Novel Cell-Penetrating Peptide Conjugated Proteasome Inhibitors: Anticancer and Antifungal Investigations” (J Med Chem, 2020)
≈ marks a conversion by molar mass, not a printed value. Calls of active or inactive are those of the source. No cut-off for these calls is given here. Peptide text beside a SMILES is read from it.

Legend:
[1] = system: HeLa; test: Antiproliferative activity against human HeLa cells assessed as reduction in cell viability after 48 hrs by MTT assay; type: functional, cell-based
[2] = system: BE(2)-C; test: Antiproliferative activity against human BE(2)-C cells assessed as reduction in cell viability after 48 hrs by MTT assay; type: functional, cell-based
[3] = system: HeLa; test: Antiproliferative activity against human HeLa cells assessed as reduction in cell viability at 1000 uM after 48 hrs by MTT assay relative to control; type: functional
[4] = system: BE(2)-C; test: Antiproliferative activity against human BE(2)-C cells assessed as reduction in cell viability at 1000 uM after 48 hrs by MTT assay relative to control; type: functional
[5] = system: HeLa; test: Induction of pore formation in human HeLa cell membrane at 2xIC50 after 12 hrs by SEM analysis; type: cell-based
[6] = system: BE(2)-C; test: Induction of pore formation in human BE(2)-C cell membrane at 2xIC50 after 12 hrs by SEM analysis; type: functional, cell-based
[7] = system: HeLa; test: Induction of membrane blebbing in human HeLa cells at 2xIC50 after 12 hrs by SEM analysis; type: cell-based; settings: Cell membrane
[8] = system: BE(2)-C; test: Induction of membrane blebbing in human BE(2)-C cells at 2xIC50 after 12 hrs by SEM analysis; type: cell-based; settings: Cell membrane
[9] = system: Candida albicans; test: Antifungal activity against Candida albicans SC5314 at 100 uM after 48 hrs; type: functional, organism-based
[10] = Selectivity ratio of IC50 for antiproliferative activity against human BE(2)-C cells to IC50 for antiproliferative activity against human HeLa cells after 48 hrs by MTT assay; type: functional
[11] = molecular target: 20S proteasome; test: Inhibition of human 20S proteasome using Suc-LLVY-AMC as substrate measured every 5 mins for 120 mins by fluorescence based assay; type: protein-complex assay
[12] = system: Candida albicans; test: Antifungal activity against Candida albicans SC5314 after 48 hrs; type: functional; settings: SC5314, 48 h
[13] = system: Candida albicans; test: Induction of pore formation in Candida albicans SC5314 membrane by SEM analysis; type: organism-based; settings: Cell membrane
[14] = system: Candida albicans; test: Induction of hyphal disruption in Candida albicans SC5314 by SEM analysis; type: organism-based; settings: Hyphae

| IC50 [1] [µM] | IC50 [11] [µM] | MIC [12] [µM] | SMILES | IC50 [2] [µM] | inhibition at 1000 µM [3] [%] | inhibition at 1000 µM [4] [%] | Activity [5] | Activity [6] | Activity [7] | Activity [8] | Activity [9] | Ratio IC50 [10] | Activity [13] | Activity [14] |
| --- | --- | --- | --- | --- | --- | --- | --- | --- | --- | --- | --- | --- | --- | --- |
| 39.1 | 0.136 | > 100 | CC(=O)N[C@@H](CC(C)C)C(=O)N[C@@H](CC(C)C)C(=O)N[C@H](C=O)CC(C)C (Ac-Leu-Leu-Leu-aldehyde) | 61.3 | – | – | – | – | – | – | – | 1.5 | – | – |
| 29.4 | 0.0064 | > 100 | CC(=O)N[C@@H](Cc1ccc(O)cc1)C(=O)N[C@@H](CC(C)C)C(=O)N[C@@H](Cc1ccccc1)C(=O)N[C@H](C=O)CC(C)C (Ac-YLFL-aldehyde) | 43.3 | – | – | – | – | – | – | – | 1.5 | – | – |
| – | – | 1.56 (≈ 1.44 µg/mL) | C[C@@H]1[C@H](O)[C@@H](C)/C=C/C=C/C=C/C=C/C=C/C=C/C=C/[C@H](O[C@@H]2O[C@H](C)[C@@H](O)[C@H](N)[C@@H]2O)C[C@@H]2O[C@](O)(C[C@@H](O)C[C@@H](O)[C@H](O)CC[C@@H](O)C[C@@H](O)CC(=O)O[C@H]1C)C[C@H](O)[C@H]2C(=O)O [AMPHOTERICIN B] | – | – | – | – | – | – | – | – | – | Active | inactive |

| SMILES | IC50 [1] [µM] | IC50 [11] [µM] | MIC [12] [µM] | IC50 [2] [µM] | inhibition at 1000 µM [3] [%] | inhibition at 1000 µM [4] [%] | Activity [5] | Activity [6] | Activity [7] | Activity [8] | Activity [9] | Ratio IC50 [10] | Activity [13] | Activity [14] |
| --- | --- | --- | --- | --- | --- | --- | --- | --- | --- | --- | --- | --- | --- | --- |
| CC(=O)N[C@@H](Cc1ccc(O)cc1)C(=O)NCC(=O)N[C@@H](CCCNC(=N)N)C(=O)N[C@@H](CCCCN)C(=O)N[C@@H](CCCCN)C(=O)N[C@@H](CCCNC(=N)N)C(=O)N[C@@H](CCCNC(=N)N)C(=O)N[C@@H](CCC(N)=O)C(=O)N[C@@H](CCCNC(=N)N)C(=O)N[C@@H](CCCNC(=N)N)C(=O)N[C@@H](CCCNC(=N)N)C(=O)O | 62.5 | – | – | 94 | 70 | 70 | inactive | inactive | inactive | inactive | inactive | – | – | – |
